Source: ChEMBL document CHEMBL1136307, “Novel chromene derivatives as TNF-alpha inhibitors” (Bioorg Med Chem Lett, 2003)

Experiment: Inhibitory activity against TNF-alpha production in human peripheral blood mononuclear cells(PBMC) using an ELISA assay
Type: functional

Going from COc1ccc2c(c1)OC(c1cc(OC)c(OC)c(OC)c1)C(C(=O)NC(C)(C)C)=C2 (centres undefined) to CNC(=O)C1=Cc2ccc(OC)cc2OC1c1cc(OC)c(OC)c(OC)c1 (centres undefined), the IC50 falls from greater than 50 µM to 8.1 µM. The second is the more potent here.

Going from COc1ccc2c(c1)OC(c1cc(OC)c(OC)c(OC)c1)C(C(=O)N(C)OC)=C2 (centres undefined) to COc1ccc2c(c1)OC(c1cc(OC)c(OC)c(OC)c1)C(C(=O)N(C)C)=C2 (centres undefined), the IC50 rises from 31.1 µM to greater than 50 µM.

First: COc1ccc2c(c1)OC(c1cc(OC)c(OC)c(OC)c1)C(C(=O)O)=C2 (centres undefined)
Second: COc1ccc2c(c1)OC(c1cc(OC)c(OC)c(OC)c1)C(C(C)=O)=C2 (centres undefined)
The IC50 of the first is higher: greater than 50 µM for the first, 0.1 µM for the second. The second is the more potent here.

Going from COc1ccc2c(c1)OC(c1cc(OC)c(OC)c(OC)c1)C(C(=O)NC(C)C)=C2 (centres undefined) to COc1ccc2c(c1)OC(c1cc(OC)c(OC)c(OC)c1)C(C(=O)OC(C)C)=C2 (centres undefined), the IC50 falls from 41.6 µM to 12 µM (3.5-fold). The second is the more potent here.

First: COc1ccc2c(c1)OC(c1cc(OC)c(OC)c(OC)c1)C(C(=O)OC(C)(C)C)=C2 (centres undefined)
Second: COC(=O)C1=Cc2ccc(OC)cc2OC1c1cc(OC)c(OC)c(OC)c1 (centres undefined)
The IC50 of the first is 6.5-fold higher: 13 µM for the first, 2 µM for the second.

Compared with CCNC(=O)C1=Cc2ccc(OC)cc2OC1c1cc(OC)c(OC)c(OC)c1 (centres undefined), CCCCNC(=O)C1=Cc2ccc(OC)cc2OC1c1cc(OC)c(OC)c(OC)c1 (centres undefined) is 1.7-fold higher in IC50: 17.9 µM for the first, 31.3 µM for the second.

COc1ccc2c(c1)OC(c1cc(OC)c(OC)c(OC)c1)C(C#N)=C2 (centres undefined) and COc1ccc2c(c1)OC(c1cc(OC)c(OC)c(OC)c1)C(C=O)=C2 (centres undefined) are the same in IC50: 0.6 µM for the first, 0.6 µM for the second.

CCCC(=O)C1=Cc2ccc(OC)cc2OC1c1cc(OC)c(OC)c(OC)c1 (centres undefined) and CCOC(=O)C1=Cc2ccc(OC)cc2OC1c1cc(OC)c(OC)c(OC)c1 (centres undefined) are within 1.5-fold of each other in IC50: 4.7 µM for the first, 7 µM for the second.

COc1ccc2c(c1)OC(c1cc(OC)c(OC)c(OC)c1)C(C(=O)OCCc1ccccc1)=C2 (centres undefined) and COc1ccc2c(c1)OC(c1cc(OC)c(OC)c(OC)c1)C(C(=O)Nc1ccccc1)=C2 (centres undefined) cannot be ordered by IC50: greater than 50 µM for the first, greater than 50 µM for the second.

First: COc1ccc2c(c1)OC(c1cc(OC)c(OC)c(OC)c1)C(CO)=C2 (centres undefined)
Second: CCOCC1=Cc2ccc(OC)cc2OC1c1cc(OC)c(OC)c(OC)c1 (centres undefined)
The IC50 of the first is 2.2-fold higher: 2.4 µM for the first, 1.1 µM for the second. The second is the more potent here.

Compared with COc1ccc2c(c1)OC(c1cc(OC)c(OC)c(OC)c1)C(/C=N/O)=C2 (centres undefined), COc1ccc2c(c1)OC(c1cc(OC)c(OC)c(OC)c1)C(C(N)=O)=C2 (centres undefined) is 6.8-fold lower in IC50: 4.1 µM for the first, 0.6 µM for the second.

Going from COc1ccc2c(c1)OC(c1cc(OC)c(OC)c(OC)c1)C(C(=O)N1CCCCC1)=C2 (centres undefined) to COc1ccc2c(c1)OC(c1cc(OC)c(OC)c(OC)c1)C=C2 (centres undefined), the IC50 falls from 48 µM to 11.6 µM (4.1-fold).
